The test system of series [1] is E. coli. The series is described as follows: In-vitro antimicrobial experiment (MIC, 96-well broth dilution). The class given is cell-based, Escherichia coli. Particulars: 37° C., 24 h; for MIC: LB liquid medium. On the procedure:
(§1) An in-vitro antimicrobial experiment of the chlorhexidine antimicrobial disinfectant was performed according to the following steps: • in a sterile super clean bench, the chlorhexidine antimicrobial disinfectants were separately prepared into 10 mg/ml solutions. A 96-well plate was taken and 100 μL of an LB liquid medium was injected into each well plate. Two rows in the same 96-well plate were respectively used as a sterile control and a drug-free control, 100 μL of the prepared chlorhexidine antimicrobial disinfectant solution was injected into the first column of the rest rows, two rows of each chlorhexidine antimicrobial disinfectant solution were injected as two groups of a parallel test, 100 μL of the uniformly mixed solution was injected into the right side well, the step was repeated until 12 columns of the wells were filled, and 100 μL of the solution was extracted from the last column and discarded. The previously cultured E. coli and S. aureus were diluted to a desired concentration of 1×10^6 CFU/mL using the LB liquid medium. 100 μL of the above-mentioned bacterial solution was injected into each well of the rows injected with the chlorhexidine antimicrobial disinfectant and the drug-free control row in the same plate. Then the plate was placed into a biochemical incubator to be cultured at 37° C. for 24 h. The plate was taken out and the change of the turbidity degree of each well was observed. […] It was observed by naked eyes that the lowest concentration of the antimicrobial agent in the clear wells where no bacteria grew was the minimum inhibitory concentration (MIC) of the tested bacteria.

Series [2] deals with S. aureus. Described as above. The class given is cell-based, Staphylococcus aureus. As to conditions: 37° C., 24 h; for MIC: LB liquid medium. Here is the method:
as §1

Series [3] can be described thus: Water solubility test. Type of series: physicochemical. As to conditions: deionized water, 25° C., 500 mg sample in 1 ml. On the procedure: A method for testing the water solubility of the chlorhexidine antimicrobial disinfectant included the following steps: • 1 ml of deionized water was added to 500 mg of a sample to be tested and the sample was fully dissolved at 25° C. If an insoluble component existed, an insoluble portion suspended in the solution. After the solution was centrifuged in a centrifuge (rate of 5,000 r/min) for 5 min, the residual solid was washed 3 times in acetone and then dried in a vacuum oven for 24 h, and after the solid was completely dried, the solid was weighed and recorded as W1.
The solubility was calculated as follows: • solubility (mg/ml)=(500−W1)/1 • where W1 is the mass (mg) of the undissolved solid.

Series [4] can be described thus: Photostability test. Type of series: physicochemical. As to conditions: fluorescent lamp. Here is the method: A photostability test of the hyaluronic acid chlorhexidine, for example the hyaluronic acid chlorhexidine (HA8-CHD) prepared in example 2, was performed according to the following steps: • a sample to be detected was exposed in an illumination box provided with a fluorescent lamp for 5 days and taken on 1st day, 3rd day and 5th day. Items (appearance, mass, 1H NMR spectrum detection, and antimicrobial performance) were mainly detected according to stability, especially the appearance change of the sample was particularly required to be noticed.

Series [5] deals with L-929 mouse fibroblasts. The class given is cell-based. Here is the method: A cytotoxicity test of the hyaluronic acid chlorhexidine, for example the hyaluronic acid chlorhexidine (HAL-CHD) of example 4, specifically included the following steps: • L-929 mouse fibroblasts were digested and the cell suspension concentration was adjusted to 0.5-1 million/mL. 100 μL of the cell suspension was added into each well of a 96-well plate with […]. The wells at the edge of the 96-well plate were filled with a culture solution. The cells were cultured overnight in a 5% CO2 incubator at 37° C. Three samples of HAL-CHD-1 (1 MIC), HAL-CHD-3 (3 MIC) and HAL-CHD-5 (5 MIC) at the concentration gradients of 10 μL or less were respectively added, and 5 replicates were prepared for each concentration gradient. At the same time, a zero-setting well (containing a culture medium and CCK-8) was set. The 96-well plate was incubated in a 5% CO2 incubator at 37° C. After 24 h, 48 h and 72 h, 10 μL of a CCK-8 reagent was added. The reaction was performed in the incubator for 3 h and the absorbance was measured using a microplate reader at the wavelength of 450 nm.

Converted amounts (≈) assume the structure as drawn.

In the case of hyaluronic acid chlorhexidine [HA4-CHD], in series [1], the “MIC, corresponding mass concentration” value is 1,667 μg/mL and the MIC worked out at 1100 µM. In series [2], the “MIC, corresponding mass concentration” value was 1,250 μg/mL and the MIC was 800 µM.

Take `CC(=O)O.CC(=O)O.NC(=N\CCCCCC/N=C(N)/N=C(\N)Nc1ccc(Cl)cc1)/N=C(\N)Nc1ccc(Cl)cc1` [AA-CHD, chlorhexidine acetate]: the Water solubility in series [3] is reported as 19.05 mg/mL.

Take `N=C(NCCCCCCNC(=N)NC(=N)Nc1ccc(Cl)cc1)NC(=N)Nc1ccc(Cl)cc1.O=C(O)[C@H](O)[C@@H](O)[C@H](O)[C@H](O)CO.O=C(O)[C@H](O)[C@@H](O)[C@H](O)[C@H](O)CO` [GA-CHD, chlorhexidine gluconate, reference compound]: in series [3], the Water solubility is no less than 500 mg/mL. The MIC in series [1] is 900 µM; in series [2] it was 700 µM.

Consider hyaluronic acid chlorhexidine [HA8-CHD], for which the Water solubility in series [3] is on record as no less than 500 mg/mL. For the same compound, the “antimicrobial performance after illumination” value in series [4] (after illumination) is on record as “not obviously reduced”. For the same compound, in series [4] (within 5 days of illumination), the “appearance versus freshly prepared sample” value is “no significant difference in appearance”, the “mass versus freshly prepared sample” value is given as “no significant change in the mass” and the “structure characterization (1H NMR) versus freshly prepared sample” value is “no significant difference in the structure characterization”.

With `[H]/N=C(\N/C(=N/[H])NCCCCCCNC(=N)NC(=N)Nc1ccc(Cl)cc1)Nc1ccc(Cl)cc1` [CHD, 1,6-bis(p-chlorophenyldiguanido)hexane], the solubility in series [3] (thermodynamic from solid) amounted to 0.85 mg/mL (≈ 1680 µM).

As for hyaluronic acid chlorhexidine [HAL-CHD], in series [5], the “cell viability versus control group” value is reported as “higher that of the control group”.
